Laboratory results taken from the supplement of paper PMC13380429.

Tests used:
[1] = test system: A549-ACE2 infected with SARS-CoV-2; experiment: cell count relative to DMSO; higher = less toxic; conditions: 24 h
Calu-3 [2] = experiment: cell viability relative to DMSO; higher = less toxic; conditions: 72 h
Caco-2 [3] = experiment: as above; conditions: 72 h
Vero E6 [4] = experiment: as above; conditions: 72 h
U2OS [5] = experiment: as above; conditions: 72 h
HepG2 [6] = experiment: as above; conditions: 72 h
Calu-3 [7] = experiment: drug sensitivity score (DSS) for viability; higher = more toxic; extreme values may be limits of the assay; conditions: 72 h
Caco-2 [8] = experiment: as above; conditions: 72 h
Vero E6 [9] = experiment: as above; conditions: 72 h
U2OS [10] = experiment: as above; conditions: 72 h
HepG2 [11] = experiment: as above; conditions: 72 h
A549-ACE2 [12] = experiment: drug-induced phospholipidosis relative to tamoxifen; higher = more phospholipidosis
[13] = test system: A549-ACE2 infected with SARS-CoV-2; experiment: SARS-CoV-2 infection rate relative to DMSO; higher = more infection; conditions: 24 h
[14] = test system: A549-ACE2 infected with SARS-CoV-2; experiment: morphology score (similarity to uninfected cells); higher = more like uninfected cells; conditions: 24 h
Calu-3 [15] = experiment: relative viability EC50 (midpoint between 100% and the lowest measured viability); higher = less toxic; conditions: 72 h
Caco-2 [16] = experiment: as above; conditions: 72 h
Vero E6 [17] = experiment: as above; conditions: 72 h
U2OS [18] = experiment: as above; conditions: 72 h
HepG2 [19] = experiment: as above; conditions: 72 h
A549-ACE2 [20] = experiment: phospholipidosis EC50; higher = less potent phospholipidosis inducer

OC(CCN1CCCCC1)(c1ccccc1)C1CC2C=CC1C2 (configuration not stated) [biperiden]
Conditions	SARS-CoV-2 infection rate, [13] [%]	cell count, [1] [%]	cell viability, Caco-2 [3] [%]	cell viability, Calu-3 [2] [%]	cell viability, HepG2 [6] [%]	cell viability, U2OS [5] [%]	cell viability, Vero E6 [4] [%]	morphology score, [14]
1 nM	–	–	93.2	103	93.3	99.4	92.7	–
10 nM	–	–	96	108	108	101	95.8	–
100 nM	–	–	99	108	99.5	102	95.2	–
0.3 µM	106	100	–	–	–	–	–	-0.01
1000 nM	–	–	97.9	101	110	97	96.2	–
3 µM	76	107	–	–	–	–	–	0.49
10 µM	55	112	–	–	–	–	–	0.74
10000 nM	–	–	104	95.4	97.2	95.3	101	–
30 µM	44	113	–	–	–	–	–	0.76

Conditions	drug sensitivity score	relative viability EC50 [µM]
Caco-2 [8]	0	–
Caco-2 [16]	–	> 10
Calu-3 [7]	0	–
Calu-3 [15]	–	> 10
HepG2 [11]	0	–
HepG2 [19]	–	> 10
U2OS [10]	0	–
U2OS [18]	–	> 10
Vero E6 [9]	0	–
Vero E6 [17]	–	> 10

drug-induced phospholipidosis [%], A549-ACE2 [12]
Conditions	0.3 µM	0.833333 µM	3.33333 µM	6.66667 µM	10 µM	30 µM
24 h	6.44	3.39	3.47	5.73	10.9	32.9
48 h	5.46	-0.33	0.38	9.63	13.4	30.6
72 h	8.44	0.683	2.98	6.62	5.63	27.3

C=C[C@@]1(C)CC(=O)[C@]2(O)[C@@]3(C)[C@@H](O)CCC(C)(C)[C@@H]3[C@H](OC(=O)CCN(C)C)[C@H](OC(C)=O)[C@@]2(C)O1 [colforsin-daproate]
Conditions	SARS-CoV-2 infection rate, [13] [%]	cell count, [1] [%]	cell viability, Caco-2 [3] [%]	cell viability, Calu-3 [2] [%]	cell viability, HepG2 [6] [%]	cell viability, U2OS [5] [%]	cell viability, Vero E6 [4] [%]	morphology score, [14]
1 nM	–	–	101	103	93.9	105	98	–
10 nM	–	–	98.9	95.5	100	103	93.9	–
0.1 µM	88	99	–	–	–	–	–	0.33
100 nM	–	–	109	99.2	94	102	96.5	–
0.3 µM	98	105	–	–	–	–	–	0.05
1 µM	106	105	–	–	–	–	–	-0.06
1000 nM	–	–	94	106	100	101	90.5	–
3 µM	108	104	–	–	–	–	–	-0.03
10000 nM	–	–	89.1	98.9	95.3	97.3	77	–

Conditions	drug sensitivity score	relative viability EC50 [µM]
Caco-2 [8]	0.1	–
Caco-2 [16]	–	> 10
Calu-3 [7]	0	–
Calu-3 [15]	–	> 10
HepG2 [11]	0	–
HepG2 [19]	–	> 10
U2OS [10]	0	–
U2OS [18]	–	> 10
Vero E6 [9]	1.3	–
Vero E6 [17]	–	> 10

drug-induced phospholipidosis [%], A549-ACE2 [12]
Conditions	0.3 µM	0.833333 µM	3.33333 µM	6.66667 µM	10 µM	30 µM
24 h	-0.11	-0.39	-2.43	1	1.72	23.6
48 h	0.82	-1.25	-1.96	0.45	2.53	34.6
72 h	2.97	-1.9	-2.38	-1.51	0.457	–

COc1c(OCCCN2CCOCC2)ccc2c1N=C(NC(=O)c1cnc(N)nc1)N1CCN=C21 [copanlisib]
Conditions	SARS-CoV-2 infection rate, [13] [%]	cell count, [1] [%]	cell viability, Caco-2 [3] [%]	cell viability, Calu-3 [2] [%]	cell viability, HepG2 [6] [%]	cell viability, U2OS [5] [%]	cell viability, Vero E6 [4] [%]	morphology score, [14]
1 nM	–	–	99.2	102	98.5	101	98.8	–
10 nM	–	–	98.7	93.1	109	96.2	105	–
0.1 µM	101	101	–	–	–	–	–	0.23
100 nM	–	–	94.6	95.4	101	98.2	96	–
0.3 µM	97	100	–	–	–	–	–	0.09
1 µM	90	98	–	–	–	–	–	0.35
1000 nM	–	–	86.9	73.4	71	96.9	89.8	–
3 µM	92	83	–	–	–	–	–	0.32
10000 nM	–	–	34.9	32.9	51.9	67.5	65.1	–

Conditions	drug sensitivity score	relative viability EC50 [µM]
Caco-2 [8]	5.7	–
Caco-2 [16]	–	1.73
Calu-3 [7]	6.8	–
Calu-3 [15]	–	1.26
HepG2 [11]	6	–
U2OS [10]	2	–
Vero E6 [9]	2.9	–

drug-induced phospholipidosis [%], A549-ACE2 [12]
Conditions	0.3 µM	0.833333 µM	3.33333 µM	6.66667 µM	10 µM	30 µM
24 h	-3.17	-4.37	0.15	5.67	10.8	56.5
48 h	-1.4	-3.62	0.68	3.97	5.69	–
72 h	-0.924	-3.86	0.214	2.05	–	–

CCN1CCC(n2cc(CNc3cc(Cl)c4ncc(C#N)c(Nc5ccc(F)c(Cl)c5)c4c3)nn2)CC1 [cot-inhibitor-2]
Conditions	SARS-CoV-2 infection rate, [13] [%]	cell count, [1] [%]	cell viability, Caco-2 [3] [%]	cell viability, Calu-3 [2] [%]	cell viability, HepG2 [6] [%]	cell viability, U2OS [5] [%]	cell viability, Vero E6 [4] [%]	morphology score, [14]
1 nM	–	–	105	110	102	102	95.7	–
10 nM	–	–	99.9	92	109	96.4	101	–
100 nM	–	–	93.3	111	91.3	97.4	101	–
0.3 µM	93	102	–	–	–	–	–	0.17
1000 nM	–	–	94.6	96.6	100	93.2	99.8	–
3 µM	47	112	–	–	–	–	–	0.77
10 µM	26	66	–	–	–	–	–	0.43
10000 nM	–	–	47.4	87	43.9	66	81.6	–

Conditions	drug sensitivity score	relative viability EC50 [µM]
Caco-2 [8]	3.7	–
Caco-2 [16]	–	2.31
Calu-3 [7]	0.3	–
Calu-3 [15]	–	> 10
HepG2 [11]	3	–
HepG2 [19]	–	3.19
U2OS [10]	2.7	–
Vero E6 [9]	0.5	–
Vero E6 [17]	–	> 10

drug-induced phospholipidosis [%], A549-ACE2 [12]
Conditions	0.3 µM	0.833333 µM	3.33333 µM	6.66667 µM
24 h	-0.44	-4.12	-0.13	29.3
48 h	-2.64	-3.78	2.2	–
72 h	1.59	-0.868	0.286	–

CCN(CC)CCCC(C)Nc1c2ccc(Cl)cc2nc2ccc(OC)cc12 (configuration not stated) [mepacrine]
Conditions	drug sensitivity score
Calu-3 [7]	5.7
HepG2 [11]	8.9
U2OS [10]	4
Vero E6 [9]	7.2

Conditions	morphology score, 0.1 µM	morphology score, 0.3 µM	morphology score, 1 µM	morphology score, 3 µM	phospholipidosis EC50, 24 h [µM]	phospholipidosis EC50, 48 h [µM]	phospholipidosis EC50, 72 h [µM]
A549-ACE2 [20]	–	–	–	–	15.8	5.62	3
[14]	0.52	0.52	0.63	0.79	–	–	–
